Values of other authors as cited in patent publication US20180325839A1, “TRANSDERMAL PATCHES” (BUZZZ PHARMACEUTICALS LIMITED, priority 2015, published 2018).

Key:
[1] = local anaesthetic during cataract surgery

- Half-life compared with lidocaine [1]: longer
- Skin permeation characteristics compared with lidocaine saturated H2O (ropivacaine saturated H2O): significantly poorer
- In vivo skin penetration compared to a saturated solution of lidocaine (saturated solution of ropivacaine): poor
SMILES: CCCN1CCCC[C@H]1C(=O)Nc1c(C)cccc1C [ropivacaine, (2S)—N-(2,6-dimethylphenyl)-1-propyl-2-piperidinecarboxamide]
- Potency relative to lidocaine, dose-for-dose [1]: as much as four times as potent as lidocaine
